Measurements: PubChem BioAssay AID1996
≈ marks a conversion by molar mass, not a printed value.

Settings: buffer; pH 7.4; 200.0 µM

| Structure (SMILES) | solubility kinetic [µg/mL] |
| --- | --- |
| CCN1CCN(CCC(=O)Nc2ccc(F)c(F)c2)CC1 | > 44.6 |
| Cn1c(-c2cccs2)[n+](C)c2ccccc21.[Cl-] | > 39.7 |
| CCOC(=O)C1CCCCN1Cc1cn(C)nc1-c1ccccc1F (stereo not drawn) | > 51.8 |
| O=C(NCCS(=O)(=O)NCC1CCCO1)c1ccccc1 (stereo not drawn) | > 46.9 |
| COc1ccccc1C(=O)O/N=C(\N)c1ccccn1 | > 40.7 |
| Cc1c(Cl)cccc1NC(=O)CCC(=O)c1cccs1 | 11.9 (≈ 38.7 µM) |
| Cc1noc2ncnc(Oc3cc(Cl)ccc3Cl)c12 | < 0.2 |
| O=CN1CCN(S(=O)(=O)c2ccc(Cl)c(C(=O)O)c2)CC1 | > 49.9 |
| O=C(c1ccccc1)c1cccn1CC(=O)N1CCc2ccccc2C1 | 41.4 (≈ 120 µM) |
| C=CCNC(=O)N1CCc2[nH]c3ccc(F)cc3c2C1 | > 41 |
| Cc1cc2c(=O)n(C)c(SCC(=O)Nc3cccc(F)c3)nc2s1 | < 0.3 |
| CC1Cc2ccccc2N1C(=O)/C=C/c1cccc(F)c1 (stereo not drawn) | 6.2 (≈ 22 µM) |
| Cc1cccc(C)c1NC(=O)CN1CCCC1 | 31.3 (≈ 135 µM) |
| Cc1ccc2[nH]cc(CCNC(=O)c3cccs3)c2c1 | > 42.7 |
| Cc1ccc(S(=O)(=O)CCC(=O)NC2CCCCC2)cc1 | > 46.4 |
| Nc1ccncc1Cl | 16.3 (≈ 127 µM) |
| CN(C)C(=O)c1cc(C(=O)c2ccccc2F)c[nH]1 | 38.9 (≈ 149 µM) |
| COc1ccc(-n2cnc3sccc3c2=O)cc1 | 35.8 (≈ 139 µM) |
| COc1ccc(S(N)(=O)=O)cc1C(=O)OCC(=O)Nc1ncc(Cl)c(C)c1Cl | 24 (≈ 53.5 µM) |
| CC(=O)NCCc1ccc(C(=O)COC(=O)C2CCCCC2)cc1 | 33.4 (≈ 101 µM) |
| COC(=O)CSC(=S)N1CCCC(C)C1 (stereo not drawn) | > 37.1 |
| CCN(CC)C(=O)N1CCN(C(=O)N2CCOCC2)CC1 | 30 (≈ 101 µM) |
| COc1ccc(S(=O)(=O)/C(C#N)=C/Nc2ccccc2F)cc1 | 3.3 (≈ 9.93 µM) |
| Cc1cc(NC(=O)COC(=O)c2ccco2)no1 | > 37.5 |
| O=C(NC1CC1)C1CC(=O)N(c2cccc(Cl)c2Cl)C1 (stereo not drawn) | > 47 |

| Structure (SMILES) | solubility kinetic [µg/mL] |
| --- | --- |
| O=C(O)CCn1c(-c2ccccc2)cc2ccccc21 | 35.7 (≈ 135 µM) |
| O=C(NCCNC(=O)c1ccccn1)c1ccc(-c2ccccc2)cc1 | 3.3 (≈ 9.55 µM) |
| CN1C(=O)C(c2ccccc2[N+](=O)[O-])C(=O)c2ccccc21 (stereo not drawn) | > 44.4 |
| N#CC(C#N)=Cc1cccnc1 | 19.5 (≈ 126 µM) |
| CN(C(=O)/C=C/c1ccccc1)C1CCCCC1 | 35.1 (≈ 144 µM) |
| O=C(NCCc1ccccc1)C1CCN(C(=O)c2ccc(F)cc2)CC1 | 47.4 (≈ 134 µM) |
| Cc1cc(=O)[nH]c(SCC(=O)c2ccc(F)c(C)c2)n1 | > 43.8 |
| Cc1cc(C(=O)Nc2ccc(Cl)cc2)c2ccccc2n1 | < 0.3 |
| Cc1cccc(NC(=O)c2cccc(N3C(=O)C4C5C=CC(C6CC56)C4C3=O)c2)c1 (stereo not drawn) | 1.5 (≈ 3.76 µM) |
| Oc1ccc(Br)cc1CNc1ccccn1 | 3.4 (≈ 12.2 µM) |
| O=C(C1CC1)N(Cc1nc2ccccc2c(=O)[nH]1)Cc1cccs1 | > 50.9 |
| N#Cc1ccc(C(=O)NC2CCCCCCC2)cc1 | > 38.5 |
| Cl.NCC1CC2c3ccccc3C1c1ccccc12 (stereo not drawn) | > 40.8 |
| CCNC(=O)COC(=O)/C=C/c1cccs1 | > 35.9 |
| C=CCN1CCN(C(=O)CSc2ccccc2)CC1 | > 41.5 |
| COc1ccc(C2=CSC3=NCCN23)cc1Cl | 38.4 (≈ 144 µM) |
| CCOc1ccc(N2C(=O)CC(=O)NC2=O)cc1 | > 37.2 |
| CC12CCC(C(=O)O)(c3nc4cc([N+](=O)[O-])ccc4nc31)C2(C)C (stereo not drawn) | > 49.1 |
| O=C(Cc1ccc(Cl)cc1)NCCc1ccc(F)cc1 | 19.4 (≈ 66.5 µM) |
| COc1cccc2cc(C(C)OC(=O)Nc3ccc(C)cc3)oc12 (stereo not drawn) | < 0.7 |
| O=C1CSC(c2ccccc2[N+](=O)[O-])N1c1cccc(F)c1 (stereo not drawn) | 12.9 (≈ 40.5 µM) |
| CC(C)(C)c1ccc(C(=O)NCCCNC(=O)c2cccnc2)cc1 | 49.2 (≈ 145 µM) |
| CC(=O)N1CCN(c2nc3ccc([N+](=O)[O-])cc3s2)CC1 | 31.7 (≈ 103 µM) |
| O=C(COc1ncnc2ccccc12)NCCc1ccc(F)cc1 | 41.9 (≈ 129 µM) |
| Cc1nn(CC(=O)N2CCC(C)CC2)c(=O)c2cccn12 | > 43.3 |

| Structure (SMILES) | solubility kinetic [µg/mL] |
| --- | --- |
| CC12CCC(=O)N1C(C(=O)Nc1cccc(F)c1)CS2 (stereo not drawn) | > 44.2 |
| OCc1ccccc1N=Cc1cccnc1 | > 31.8 |
| COc1ccc(C=C(C#N)C#N)c(CSc2ccccn2)c1 | 2.1 (≈ 6.83 µM) |
| O=C(O)c1nccnc1C(=O)Nc1ccc(Cl)cc1Cl | > 46.8 |
| CCC(C)N(C(=O)CSc1nncn1C)C1CCS(=O)(=O)C1 (stereo not drawn) | > 52 |
| Cc1nc2nc(-c3cccs3)[nH]c2cc1Br | 3.8 (≈ 12.9 µM) |
| Cc1ccc(Nc2nc(NCCO)c3ccccc3n2)cc1C.Cl | 30.9 |
| COc1ccccc1C(=O)NCCC(=O)N1CCCC(C)C1 (stereo not drawn) | > 45.7 |
| Cc1cccc(-n2c(O)c(C=NCCN3CCCCC3)c(=O)[nH]c2=O)c1 | > 53.5 |
| Cn1ccnc1C(O)(c1ccccc1)c1nccn1C | > 40.2 |
| OCCNC(=S)NCc1ccccc1 | 31.5 (≈ 150 µM) |
| O=C1OCC2=C1C(c1ccccc1)CC(=O)N2c1cccc(F)c1 (stereo not drawn) | 44.3 (≈ 137 µM) |
| CCOc1ccc(S(=O)(=O)NC(C)C(=O)NCc2ccccn2)cc1 (stereo not drawn) | > 54.5 |
| COc1ccccc1NC(=O)/C=C/C(=O)O | > 33.2 |
| COCc1ccc(CN2CCC(CO)(CC3CCCCO3)CC2)o1 (stereo not drawn) | > 50.6 |
| COc1ccc(OCC(=O)Nc2ccc3nc(C)sc3c2)cc1 | 15.8 (≈ 48.1 µM) |
| Nc1ncnc2nc(SCC(=O)Nc3ccccc3F)[nH]c12 | 29.8 (≈ 93.6 µM) |
| Clc1ccc(C2Nc3cccc4cccc(c34)N2)cc1 | 7.7 (≈ 27.4 µM) |
| Cc1ccc(-c2onc3ccc(Br)cc23)cc1 | < 0.6 |
| O=C(CN1C(=O)COc2ccc(Cl)cc21)Nc1nccs1 | 1.4 (≈ 4.32 µM) |
| S=C(NCC1CCCO1)c1ccc(Br)cc1 (stereo not drawn) | 39 (≈ 130 µM) |
| Cc1nc(Nc2cccc(O)c2)c2oc3ccccc3c2n1 | 2 (≈ 6.87 µM) |
| NC(=O)c1c(NC(=O)c2ccncc2)sc2c1CCCCCC2 | 7 (≈ 21.2 µM) |
| CCc1ccccc1NC(=O)c1ccc(S(=O)(=O)N2CCCC2)cc1 | 12.2 (≈ 34 µM) |
| CCOC(=O)c1cc(S(=O)(=O)NCc2ccco2)cn1C | > 46.9 |

| Structure (SMILES) | solubility kinetic [µg/mL] |
| --- | --- |
| COc1ccc(C(=O)NC(C)C2CC3CCC2C3)c(OC)c1 (stereo not drawn) | > 45.5 |
| Cc1ccc(C(=O)NCCNC(=O)COc2ccc(Cl)cc2)cn1 | > 52.2 |
| S=C(NCc1ccc(Cl)cc1)Nc1ccncc1 | > 41.7 |
| Cc1ccnc(NC(=O)CCNC(=O)c2ccc(Cl)cc2)c1 | 14.9 (≈ 46.9 µM) |
| CCOc1ccc(N2C(=O)CC(NCC#N)C2=O)cc1 (stereo not drawn) | > 41 |
| Cc1nc(C)c(C(=O)OCC(=O)NCc2ccccc2Cl)s1 | 26.4 (≈ 77.9 µM) |
| COc1ccc2[nH]c(C(=O)O)c(NC(=O)c3ccccc3[N+](=O)[O-])c2c1 | > 53.3 |
| O=C(Nc1cccc2ccccc12)C1CCCC1 | 12.2 (≈ 51 µM) |
| CC(=O)Nc1cccc(C(=O)/C=C/c2ccc[nH]2)c1 | > 38.1 |
| COc1ccc(NC(=O)CCCOc2ccc(Cl)c(C)c2)cc1S(=O)(=O)N1CCOCC1 | 15.3 (≈ 31.7 µM) |
| COc1ccc(/C(N)=N/OC(=O)CC2CCCCC2)cc1OC | 19.1 (≈ 59.6 µM) |
| COc1cccc(NC(=O)c2ccccc2C(F)(F)F)c1 | > 44.3 |
| CCOC(=O)c1sc(-c2ccc(Cl)cc2Cl)nc1O | 28.2 (≈ 88.6 µM) |
| CCN(Cc1ccncc1)C(=S)NCc1ccccc1 | 42.1 (≈ 148 µM) |
| CCOC(=O)N1CCN(CC(=O)Nc2ccc(F)cc2)CC1 | > 46.4 |
| O=C(CNC(=O)c1ccc(Cl)cc1)NC(CO)c1ccccc1 (stereo not drawn) | 32.6 (≈ 98 µM) |
| C=CCNC(=O)c1ccc(S(=O)(=O)CC)c(Cl)c1Cl | > 48.3 |
| CSc1nc(NCC(C)O)c2c3c(sc2n1)CN(C)CC3 (stereo not drawn) | 44.7 (≈ 138 µM) |
| O=C(OCc1cccc([N+](=O)[O-])c1)c1cc2ccccc2oc1=O | < 0.7 |
| Nc1ccc(CN2CCOCC2)cc1 | > 28.8 |
| O=C(Nc1cccc([N+](=O)[O-])c1)N1CCc2ccccc2C1 | 28.6 (≈ 96.2 µM) |
| CN1CCCC(OC(=O)c2cccc(Cl)c2)C1.Cl (stereo not drawn) | > 43.5 |
| CC(=O)c1ccc(NC(=O)C(C)OC(=O)/C=C/c2ccco2)cc1 (stereo not drawn) | 21.7 (≈ 66.3 µM) |
| FC(F)(F)c1cccc(NC2=NCCCS2)c1 | 33.7 (≈ 129 µM) |
| COc1ccc(Nc2nc(N)c([N+](=O)[O-])c(NCc3ccccc3)n2)cc1 | < 0.1 |

| Structure (SMILES) | solubility kinetic [µg/mL] |
| --- | --- |
| COc1cc(C(=O)NCCNC(=O)C2CCCNC2=O)cc(OC)c1OC (stereo not drawn) | > 56.9 |
| COc1cc(OC)c(C(=O)OC(C)C(=O)NCc2ccc3c(c2)OCO3)cc1OC (stereo not drawn) | > 62.6 |
| O=S(=O)(Nc1ccccc1N1CCCCC1)c1ccccc1 | 4.4 (≈ 13.9 µM) |
| CC(=O)C1=C(O)C(=O)N(Cc2ccccc2)C1c1ccc(Cl)cc1 (stereo not drawn) | > 51.3 |
| Cc1ccc(C(=O)NCCc2ccccc2)cc1 | 27.4 (≈ 114 µM) |
| Cc1ccc2[nH]c3ccccc3c(=O)c2c1 | 5.8 (≈ 27.7 µM) |
| COc1ccc(S(=O)(=O)N2CCN3CCCC3C2)cc1 (stereo not drawn) | 41.8 (≈ 141 µM) |
| CC1=C/C(=C\C=C(C#N)C#N)N(C)c2ccccc21 | 0.8 (≈ 3.23 µM) |
| COCCn1cnc2c1c(=O)[nH]c(=O)n2Cc1ccccc1 | 37 (≈ 123 µM) |
| COc1ccc(OCCn2c(N)nc3ccccc32)cc1 | > 42.5 |
| Cc1ccc(C)c(S(=O)(=O)N2CCC3(CC2)OCCO3)c1 | > 46.7 |
| O=C(Cc1cccs1)Nc1ccc(F)cc1F | 30 (≈ 118 µM) |
| CC(C)CN1C(=O)N(c2ccc(Cl)cc2)C(C)(O)CC1(C)C (stereo not drawn) | 4.1 (≈ 12.6 µM) |
| CCN(C(=O)COC(=O)c1cccnc1SC)C1CCCCC1 | > 50.5 |
| CCCCOC(=O)N1CCOCCOCCOCCOCC1 | > 47.9 |
| CCOC(=O)c1c(-c2ccc(C)s2)csc1N | 7.3 (≈ 27.3 µM) |
| O=C(NCCOCc1ccccc1)C(c1ccccc1)c1ccccc1 | 23.3 (≈ 67.4 µM) |
| O=C(COC(=O)c1cccc(S(=O)(=O)N2CCOCC2)c1)NCc1ccc2c(c1)OCO2 | 66.8 (≈ 144 µM) |
| CC1(C)OC(=O)C(=CNC(CO)C(=O)O)C(=O)O1 (stereo not drawn) | > 38.9 |
| CCc1cccc(NC(=O)C(NC(=O)C2CCCCC2)C(C)C)c1 (stereo not drawn) | 0.6 (≈ 1.82 µM) |
| CCCC[N+]12CCC(CC1)C(Cc1ccccc1)C2.[Br-] (stereo not drawn) | > 50.7 |
| COc1ccc(NC(=O)O/N=C/c2ccncc2)cc1 | > 40.7 |
| CCc1ccc(C(C)NC(=O)c2ccncc2)cc1 (stereo not drawn) | > 38.1 |
